US20240300932A1, “N-PHENYLIMINE DERIVATIVE AND PREPARATION METHOD AND USE THEREOF” (Guizhou University, priority 2023, published 2024)

Experiments:
Assay in all cases: Post-emergence herbicidal activity test (stem and leaf spray, pot culture)
Type in all cases: in vivo
Settings in all cases: 3 weeks after spraying
Trifoliumre pensL. = test system: Trifoliumre pensL.
Experimental: (1) Post-Emergence Stem and Leaf Spray Treatment: The weeds were cultivated in a 180 mm×140 mm plastic nutrient pot by a pot-culture method, placed in an enamel tray, and the plastic nutrient pots were filled with surface soil (⅘ of a depth) collected from a farmland and air-dried and sieved, and a soil humidity was controlled at 20% in the initial stage. Weed seeds with plump and uniform grains were selected, soaked in warm water at 25° C. for 6 h, and germinated in a biochemical incubator (dark) at 28° C. The freshly exposed weed seeds were evenly placed on the soil surface, and then covered with 0.5 cm to 1 cm of soil according to the size of the seeds. The weeds are cultivated in a controlled sunlight greenhouse at 20° C. to 30° C., under natural light, and a relative humidity of 57% to 72%. The soil was loam, including 1.63% of organic matters, with a pH value of 7, 84.3 mg/kg of alkaline nitrogen, 38.5 mg/kg of available phosphorus, and 82.1 mg/kg of available potassium. Each treatment was repeated 2 times, each treatment included 12 pots, and 20 weed seeds were sown in each pot. Pesticide was applied in the test for 1 time in total. When the weeds grew to 1.5- to 2-leaf stage, thinning was conducted, with 10 weeds in each pot, and 30 weeds were kept in each treatment. The cultivated weeds were placed on trays with an area of 0.1 m^2, and stems and leaves were sprayed with a sprayer. After applying a pesticide, the pesticide applied weeds were moved into a greenhouse for routine cultivation. 2 weeks after sowing, the test plants were treated at the 2- to 3-leaf stage: the compounds of the present disclosure for testing were dissolved in acetone separately, and added with Tween 80, an emulsifiable oil of 1.5 liters/ha methyl oleate was added as a synergist, and an obtained mixture was diluted with certain water to a certain concentration solution. The solution was sprayed onto the plants using a spray tower. After spraying, the weeds were cultivated in the greenhouse for 3 weeks, and the experimental effects on the weeds were counted. The effective concentrations of the compounds were 10 g/mu, 5 g/mu, and 2.5 g/mu, the experiment was repeated three times, and an average result was taken.

Amaranthus retroflexus = test system: Amaranthus retroflexus
Experimental: (§1) The weeds were cultivated in a 180 mm×140 mm plastic nutrient pot by a pot-culture method, placed in an enamel tray, and the plastic nutrient pots were filled with surface soil (⅘ of a depth) collected from a farmland and air-dried and sieved, and a soil humidity was controlled at 20% in the initial stage. Weed seeds with plump and uniform grains were selected, soaked in warm water at 25° C. for 6 h, and germinated in a biochemical incubator (dark) at 28° C. The freshly exposed weed seeds were evenly placed on the soil surface, and then covered with 0.5 cm to 1 cm of soil according to the size of the seeds. The weeds are cultivated in a controlled sunlight greenhouse at 20° C. to 30° C., under natural light, and a relative humidity of 57% to 72%. The soil was loam, including 1.63% of organic matters, with a pH value of 7, 84.3 mg/kg of alkaline nitrogen, 38.5 mg/kg of available phosphorus, and 82.1 mg/kg of available potassium.
(§2) Each treatment was repeated 2 times, each treatment included 12 pots, and 20 weed seeds were sown in each pot. Pesticide was applied in the test for 1 time in total. When the weeds grew to 1.5- to 2-leaf stage, thinning was conducted, with 10 weeds in each pot, and 30 weeds were kept in each treatment.
(§3) The cultivated weeds were placed on trays with an area of 0.1 m^2, and stems and leaves were sprayed with a sprayer. After applying a pesticide, the pesticide applied weeds were moved into a greenhouse for routine cultivation.
(§4) 2 weeks after sowing, the test plants were treated at the 2- to 3-leaf stage: the compounds of the present disclosure for testing were dissolved in acetone separately, and added with Tween 80, an emulsifiable oil of 1.5 liters/ha methyl oleate was added as a synergist, and an obtained mixture was diluted with certain water to a certain concentration solution. The solution was sprayed onto the plants using a spray tower. After spraying, the weeds were cultivated in the greenhouse for 3 weeks, and the experimental effects on the weeds were counted. The effective concentrations of the compounds were 10 g/mu, 5 g/mu, and 2.5 g/mu, the experiment was repeated three times, and an average result was taken.
(§5) The activity level criteria for plant destruction (i.e. growth control rate) are as follows: • Grade 5: the growth control rate is greater than or equal to 85%; • Grade 4: the growth control rate is greater than or equal to 60% and less than 85%; • Grade 3: the growth control rate is greater than or equal to 40% and less than 60%; • Grade 2: the growth control rate is greater than or equal to 20% and less than 40%; • Grade 1: the growth control rate is greater than or equal to 5% and less than 20%; and • Grade 0: the growth control rate is less than 5%.
(§6) The growth control rate is a fresh weight control rate.

Abutilon theophrasti = test system: Abutilon theophrasti
Experimental: as §1, §2, §3, §4, §5, §6

Echinochloa crusgalli = test system: Echinochloa crusgalli
Experimental: as §1, §2, §3, §4, §5, §6

Portulaca oleracea = test system: Portulaca oleracea
Experimental: as §1, §2, §3, §4, §5, §6

Setaria viridis = test system: Setaria viridis
Experimental: as §1, §2, §3, §4, §5, §6

Compound: Cc1cccc(-c2nnc(COc3cc(N4C(=O)C5=C(CCCC5)C4=O)c(F)cc3Cl)o2)c1 [Compound B3, 2-(4-chloro-2-fluoro-5-(5-(3-tolyl)-1,3,4-oxadiazole-2-methoxy)phenyl)-4,5,6,7-tetrahydro-1H-isoindole-1,3(2H)-dione]
- Post-emergence herbicidal activity, Trifoliumre pensL. (grade) (Trifoliumre pensL.; dosage 2.5 g/mu): 5 (Grade 5: the growth control rate is greater than or equal to 85%)
- Post-emergence herbicidal activity, Trifoliumre pensL. (grade) (Trifoliumre pensL.; dosage 5 g/mu): 5 (Grade 5: the growth control rate is greater than or equal to 85%)
- Post-emergence herbicidal activity, Trifoliumre pensL. (grade) (Trifoliumre pensL.; dosage 10 g/mu): 5 (Grade 5: the growth control rate is greater than or equal to 85%)
- Post-emergence herbicidal activity, A. retroflexus (grade) (Amaranthus retroflexus; dosage 2.5 g/mu): 5 (Grade 5: the growth control rate is greater than or equal to 85%)
- Post-emergence herbicidal activity, A. retroflexus (grade) (Amaranthus retroflexus; dosage 5 g/mu): 5 (Grade 5: the growth control rate is greater than or equal to 85%)
- Post-emergence herbicidal activity, A. retroflexus (grade) (Amaranthus retroflexus; dosage 10 g/mu): 5 (Grade 5: the growth control rate is greater than or equal to 85%)
- Post-emergence herbicidal activity, A. theophrasti (grade) (Abutilon theophrasti; dosage 2.5 g/mu): 5 (Grade 5: the growth control rate is greater than or equal to 85%)
- Post-emergence herbicidal activity, A. theophrasti (grade) (Abutilon theophrasti; dosage 5 g/mu): 5 (Grade 5: the growth control rate is greater than or equal to 85%)
- Post-emergence herbicidal activity, A. theophrasti (grade) (Abutilon theophrasti; dosage 10 g/mu): 5 (Grade 5: the growth control rate is greater than or equal to 85%)
- Post-emergence herbicidal activity, E. crusgalli (grade) (Echinochloa crusgalli; dosage 2.5 g/mu): 1 (Grade 1: the growth control rate is greater than or equal to 5% and less than 20%)
- Post-emergence herbicidal activity, E. crusgalli (grade) (Echinochloa crusgalli; dosage 5 g/mu): 2 (Grade 2: the growth control rate is greater than or equal to 20% and less than 40%)
- Post-emergence herbicidal activity, E. crusgalli (grade) (Echinochloa crusgalli; dosage 10 g/mu): 3 (Grade 3: the growth control rate is greater than or equal to 40% and less than 60%)
- Post-emergence herbicidal activity, P. oleracea (grade) (Portulaca oleracea; dosage 2.5 g/mu): 5 (Grade 5: the growth control rate is greater than or equal to 85%)
- Post-emergence herbicidal activity, P. oleracea (grade) (Portulaca oleracea; dosage 5 g/mu): 5 (Grade 5: the growth control rate is greater than or equal to 85%)
- Post-emergence herbicidal activity, P. oleracea (grade) (Portulaca oleracea; dosage 10 g/mu): 5 (Grade 5: the growth control rate is greater than or equal to 85%)
- Post-emergence herbicidal activity, S. viridis (grade) (Setaria viridis; dosage 2.5 g/mu): 2 (Grade 2: the growth control rate is greater than or equal to 20% and less than 40%)
- Post-emergence herbicidal activity, S. viridis (grade) (Setaria viridis; dosage 5 g/mu): 3 (Grade 3: the growth control rate is greater than or equal to 40% and less than 60%)
- Post-emergence herbicidal activity, S. viridis (grade) (Setaria viridis; dosage 10 g/mu): 4 (Grade 4: the growth control rate is greater than or equal to 60% and less than 85%)
